Assay results taken from US20240246964A1 (Arbutus Biopharma Corporation, priority 2021, published 2024).

Each compound was assayed against human PD-L1 (Homo sapiens (Human), UniProt Q9NZQ7) (assay: T cell activation luciferase reporter cell culture system (T Cell Activation Assay)). Details: luciferase reporter assay; PD-L1 aAPC/CHO-K1 cells with PD-1 effector Jurkat T cells.
Format: cell-based

Chain of human PD-L1 (Q9NZQ7 19-290): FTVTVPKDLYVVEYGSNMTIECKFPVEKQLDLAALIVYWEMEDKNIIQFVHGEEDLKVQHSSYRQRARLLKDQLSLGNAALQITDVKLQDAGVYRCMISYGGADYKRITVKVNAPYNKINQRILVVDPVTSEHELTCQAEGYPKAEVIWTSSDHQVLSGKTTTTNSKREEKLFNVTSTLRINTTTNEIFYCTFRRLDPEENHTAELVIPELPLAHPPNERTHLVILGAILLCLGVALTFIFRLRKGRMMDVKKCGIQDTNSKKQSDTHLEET

EC50	Compound
36.8 nM	COc1cc(-c2nccc(-c3cccc(-c4ccc(CNC[C@@H]5CCC(=O)N5)c(OC)n4)c3Cl)c2Cl)ccc1CNC1CCS(=O)(=O)CC1 [Cmpd 126, (S)-5-((((6-(2-chloro-3-(3-chloro-2-(4-(((1,1-dioxidotetrahydro-2H-thiopyran-4-yl)amino)methyl)-3-methoxyphenyl)pyridin-4-yl)phenyl)-2-methoxypyridin-3-yl)methyl)amino)methyl)pyrrolidin-2-one]
33.5 nM	COc1cc(-c2nccc(-c3cccc(-c4ccc(CNC[C@@H]5CCC(=O)N5)c(OC)n4)c3Cl)c2Cl)ccc1CNC1CCOCC1 [Cmpd 127, (S)-5-((((6-(2-chloro-3-(3-chloro-2-(3-methoxy-4-(((tetrahydro-2H-pyran-4-yl)amino)methyl)phenyl)pyridin-4-yl)phenyl)-2-methoxypyridin-3-yl)methyl)amino)methyl)pyrrolidin-2-one]
21.4 nM	COc1cc(-c2nccc(-c3cccc(-c4ccc(CNC[C@@H]5CCC(=O)N5)c(OC)n4)c3Cl)c2Cl)cc2c1CN(C[C@H]1C[C@H](O)C1)CC2 [Cmpd 133]
23 nM	COc1cc(-c2nccc(-c3cccc(-c4ccc(CNC[C@@H]5CCC(=O)N5)c(OC)n4)c3Cl)c2Cl)cc2c1CN(C[C@H]1C[C@@H](O)C1)CC2 [Cmpd 134]
84.3 nM	COc1cc(-c2nccc(-c3cccc(-c4ccc(CN(C)C)c(OC)n4)c3Cl)c2Cl)ccc1CN(C)C [Cmpd 137, 1-(6-(2-chloro-3-(3-chloro-2-(4-((dimethylamino)methyl)-3-methoxyphenyl)pyridin-4-yl)phenyl)-2-methoxypyridin-3-yl)-N,N-dimethylmethanamine]
5160 nM	COc1cc(-c2nccc(-c3cccc(-c4ccc(CN(C)CCO)c(OC)n4)c3Cl)c2Cl)ccc1CN(C)CCO [Cmpd 138, 2-(((6-(2-chloro-3-(3-chloro-2-(4-(((2-hydroxyethyl)(methyl)amino)methyl)-3-methoxyphenyl)pyridin-4-yl)phenyl)-2-methoxypyridin-3-yl)methyl)(methyl)amino)ethan-1-ol]
12.9 nM	COc1cc(-c2nccc(-c3cccc(-c4ccc(CNC5CCN(C(C)=O)CC5)c(OC)n4)c3Cl)c2Cl)ccc1CNC1CCN(C(C)=O)CC1 [Cmpd 139, 1-(4-(((6-(3-(2-(4-(((1-acetylpiperidin-4-yl)amino)methyl)-3-methoxyphenyl)-3-chloropyridin-4-yl)-2-chlorophenyl)-2-methoxypyridin-3-yl)methyl)amino)piperidin-1-yl)ethan-1-one]
≥ 10000 nM	COc1cc(-c2nccc(-c3cccc(-c4ccc(CN(C)C5CCN(C(C)=O)CC5)c(OC)n4)c3Cl)c2Cl)ccc1CN(C)C1CCN(C(C)=O)CC1 [Cmpd 140, 1-(4-(((6-(3-(2-(4-(((1-acetylpiperidin-4-yl)(methyl)amino)methyl)-3-methoxyphenyl)-3-chloropyridin-4-yl)-2-chlorophenyl)-2-methoxypyridin-3-yl)methyl)(methyl)amino)piperidin-1-yl)ethan-1-one]
127 nM	COC(=O)CN1CCc2cc(-c3nccc(-c4cccc(-c5ccc(CNC[C@@H]6CCC(=O)N6)c(OC)n5)c4Cl)c3Cl)cc(OC)c2C1 [Cmpd 150, methyl (S)-2-(6-(3-chloro-4-(2-chloro-3-(6-methoxy-5-((((5-oxopyrrolidin-2-yl)methyl)amino)methyl)pyridin-2-yl)phenyl)pyridin-2-yl)-8-methoxy-3,4-dihydroisoquinolin-2(1H)-yl)acetate]
77.3 nM	COc1cc(-c2nccc(-c3cccc(-c4ccc(CNC[C@@H]5CCC(=O)N5)c(OC)n4)c3Cl)c2Cl)cc2c1CN(CC(=O)O)CC2 [Cmpd 151, (S)-2-(6-(3-chloro-4-(2-chloro-3-(6-methoxy-5-((((5-oxopyrrolidin-2-yl)methyl)amino)methyl)pyridin-2-yl)phenyl)pyridin-2-yl)-8-methoxy-3,4-dihydroisoquinolin-2(1H)-yl)acetic acid]
170 nM	COc1nc(-c2cccc(-c3ccnc(-c4ccc5c(CNC6CCN(C(C)=O)CC6)cn(C)c5c4)c3Cl)c2Cl)ccc1CNC1CCN(C(C)=O)CC1 [Cmpd 277, 1-(4-(((6-(3-(2-(3-(((1-acetylpiperidin-4-yl)amino)methyl)-1-methyl-1H-indol-6-yl)-3-chloropyridin-4-yl)-2-chlorophenyl)-2-methoxypyridin-3-yl)methyl)amino)piperidin-1-yl)ethan-1-one]
35.8 nM	COc1cc(-c2nccc(-c3cccc(-c4ccc(CNCCC(=O)O)c(OC)n4)c3Cl)c2Cl)ccc1CNC1CCN(C(C)=O)CC1 [Cmpd 389, 3-(((6-(3-(2-(4-(((1-acetylpiperidin-4-yl)amino)methyl)-3-methoxyphenyl)-3-chloropyridin-4-yl)-2-chlorophenyl)-2-methoxypyridin-3-yl)methyl)amino)propanoic acid]
272 nM	COc1cc(-c2nccc(-c3cccc(-c4ccc(CNC5CCN(C(C)=O)CC5)c(OC)n4)c3C#N)c2Cl)ccc1CNC1CCN(C(C)=O)CC1 [Cmpd 615, 2-(2-(4-(((1-acetylpiperidin-4-yl)amino)methyl)-3-methoxyphenyl)-3-chloropyridin-4-yl)-6-(5-(((1-acetylpiperidin-4-yl)amino)methyl)-6-methoxypyridin-2-yl)benzonitrile]
84.8 nM	COc1nc(-c2cccc(-c3ccnc(-c4cc(OC)c5nc(CNC(C)C)nn5c4)c3Cl)c2Cl)ccc1CNC1CCN(C(C)=O)CC1 [Cmpd 644, 1-(4-(((6-(2-chloro-3-(3-chloro-2-(2-((isopropylamino)methyl)-8-methoxy-[1,2,4]triazolo[1,5-a]pyridin-6-yl)pyridin-4-yl)phenyl)-2-methoxypyridin-3-yl)methyl)amino)piperidin-1-yl)ethan-1-one]
164 nM	COc1cc(-c2nccc(-c3ccnc(-c4cc(F)c(CN5CC6(CNC(=O)C6)C5)c(OC)c4)c3Cl)c2Cl)cc(F)c1CN1CC2(CNC(=O)C2)C1 [Compound 323, 2,2′-(((3,3′-Dichloro-[4,4′-bipyridine]-2,2′-diyl)bis(2-fluoro-6-methoxy-4,1-phenylene))bis(methylene))bis(2,6-diazaspiro[3.4]octan-7-one)]
89.1 nM	COc1nc(-c2cncc(-c3cccc(NC(=O)c4cn(C)c(=O)n(C)c4=O)c3Cl)c2Cl)ccc1CNC[C@@H]1CCC(=O)N1 [Compound 712, (S)—N-(2-Chloro-3-(4′-chloro-6-methoxy-5-((((5-oxopyrrolidin-2-yl)methyl)amino)methyl)-[2,3′-bipyridin]-5′-yl)phenyl)-1,3-dimethyl-2,4-dioxo-1,2,3,4-tetrahydropyrimidine-5-carboxamide]
81.5 nM	COc1nc(-c2ccnc(-c3cccc(NC(=O)c4cn(C)c(=O)n(C)c4=O)c3Cl)c2Cl)ccc1CNC[C@@H]1CCC(=O)N1 [Compound 718, (S)—N-(2-Chloro-3-(3′-chloro-6-methoxy-5-((((5-oxopyrrolidin-2-yl)methyl)amino)methyl)-[2,4′-bipyridin]-2′-yl)phenyl)-1,3-dimethyl-2,4-dioxo-1,2,3,4-tetrahydropyrimidine-5-carboxamide]
420 nM	COc1nc(-c2ccnc(-c3cccc(NC(=O)c4cn(C)c(=O)n(C)c4=O)c3Cl)c2Cl)ccc1CN1CC2(CNC(=O)C2)C1 [Compound 719, N-(2-Chloro-3-(3′-chloro-6-methoxy-5-((7-oxo-2,6-diazaspiro[3.4]octan-2-yl)methyl)-[2,4′-bipyridin]-2′-yl)phenyl)-1,3-dimethyl-2,4-dioxo-1,2,3,4-tetrahydropyrimidine-5-carboxamide]
818 nM	COc1nc(-c2cncc(-c3cccc(NC(=O)c4cn(C)c(=O)n(C)c4=O)c3Cl)c2Cl)ccc1CN1CC2(CNC(=O)C2)C1 [Compound 722, N-(2-Chloro-3-(4′-chloro-6-methoxy-5-((7-oxo-2,6-diazaspiro[3.4]octan-2-yl)methyl)-[2,3′-bipyridin]-5′-yl)phenyl)-1,3-dimethyl-2,4-dioxo-1,2,3,4-tetrahydropyrimidine-5-carboxamide]
1850 nM	COc1nc(-c2cncc(-c3cccc(NC(=O)c4cn(C)c(=O)n(C)c4=O)c3Cl)c2Cl)ccc1CNC1CCN(C(C)=O)CC1 [Compound 723, N-(3-(5-(((1-Acetylpiperidin-4-yl)amino)methyl)-4′-chloro-6-methoxy-[2,3′-bipyridin]-5′-yl)-2-chlorophenyl)-1,3-dimethyl-2,4-dioxo-1,2,3,4-tetrahydropyrimidine-5-carboxamide]
652 nM	COc1nc(-c2cncc(-c3cccc(NC(=O)c4cn(C)c(=O)n(C)c4=O)c3Cl)c2Cl)ccc1CNC[C@H](C)O [Compound 729, (S)—N-(2-Chloro-3-(4′-chloro-5-(((2-hydroxypropyl)amino)methyl)-6-methoxy-[2,3′-bipyridin]-5′-yl)phenyl)-1,3-dimethyl-2,4-dioxo-1,2,3,4-tetrahydropyrimidine-5-carboxamide]
1100 nM	COc1nc(-c2cncc(-c3cccc(NC(=O)c4cn(C)c(=O)n(C)c4=O)c3Cl)c2Cl)ccc1CN1CC2(C1)CN(C(C)=O)C2 [Compound 730, N-(3-(5-((6-Acetyl-2,6-diazaspiro[3.3]heptan-2-yl)methyl)-4′-chloro-6-methoxy-[2,3′-bipyridin]-5′-yl)-2-chlorophenyl)-1,3-dimethyl-2,4-dioxo-1,2,3,4-tetrahydropyrimidine-5-carboxamide]
102 nM	COc1nc(-c2cccc(-c3ccnc(-c4cc5c(=O)n(C)c(CN6CC(C)(O)C6)nn5c4)c3Cl)c2Cl)ccc1CN[C@H]1C[C@](C)(O)C1 [Example 232, 6-(3-Chloro-4-(2-chloro-3-(5-((((1r,3r)-3-hydroxy-3-methylcyclobutyl)amino)methyl)-6-methoxypyridin-2-yl)phenyl)pyridin-2-yl)-2-((3-hydroxy-3-methylazetidin-1-yl)methyl)-3-methylpyrrolo[2,1-f][1,2,4]triazin-4(3H)-one]
≥ 10000 nM	COc1nc(-c2cccc(-c3ccnc(-c4cc5c(=O)n(C)c(CN6CC(C)(O)C6)nn5c4)c3Cl)c2Cl)ccc1CNC(C)C [Example 233, 6-(3-Chloro-4-(2-chloro-3-(5-((isopropylamino)methyl)-6-methoxypyridin-2-yl)phenyl)pyridin-2-yl)-2-((3-hydroxy-3-methylazetidin-1-yl)methyl)-3-methylpyrrolo[2,1-f][1,2,4]triazin-4(3H)-one]
